Measured values: ChEMBL document CHEMBL3871282, “Neo-tanshinlactone D-ring modified novel analogues induce apoptosis in human breast cancer cell via DNA damage” (Bioorg Med Chem, 2017)
pIC50: −log10 of the molar value. Calls of active or inactive are those of the source. The calls are words filed in the database; no cut-off is given here.

Experiments:
[1] = Cytotoxicity against human MDA-MB-231 ER negative, PR negative,HER2 negative cells assessed as cell growth inhibition after 24 hrs by MTT assay; assay type: functional, cell-based; settings: MDA-MB-231, 24 h
[2] = Cytotoxicity against human HeLa cells assessed as cell growth inhibition after 24 hrs by MTT assay; assay type: functional, cell-based
[3] = Cytotoxicity against human WI38 cells assessed as cell growth inhibition after 24 hrs by MTT assay; assay type: toxicity, cell-based, WI-38
[4] = Cytotoxicity against human HaCaT cells assessed as cell growth inhibition after 24 hrs by MTT assay; assay type: toxicity, cell-based
Bos taurus [5] = species on record: Bos taurus; test: Binding affinity to calf thymus DNA assessed as decrease in […] at 50 uM measured at 260 nm by UV-Vis spectrophotometric analysis
Bos taurus [6] = species on record: Bos taurus; test: Inhibition of DAPI binding to calf thymus DNA at 10 to 50 uM measured at 460 nm by fluorescence spectroscopic method
MCF7 [7] = test: Binding affinity to DNA in human MCF7 cells assessed as formation of DNA double strand breaks after 24 hrs by alkaline comet assay; assay type: cell-based
MCF7 [8] = test: Induction of DNA double strand breaks in human MCF7 cells assessed as increase in H2AX to gamma-H2AX ratio at near IC50 after 24 hrs by DAPI staining-based immunocytochemistry analysis relative to control; assay type: cell-based
MCF7 [9] = test: Induction of apoptosis in human MCF7 cells at IC50 after 24 hrs by Annexin V/7AAD-dual staining based fluorescent microscopic analysis; assay type: functional
MCF7 [10] = test: Induction of apoptosis in human MCF7 cells assessed as late apoptotic cells at 8 nM after 24 hrs by Annexin V-FITC/propidium iodide-dual staining based FACS analysis (reference value: 0.1%); assay type: functional
MCF7 [11] = test: Induction of apoptosis in human MCF7 cells assessed as late apoptotic cells at 12 nM after 24 hrs by Annexin V-FITC/propidium iodide-dual staining based FACS analysis (reference value: 0.1%); assay type: functional
MCF7 [12] = test: Induction of apoptosis in human MCF7 cells assessed as early apoptotic cells at 16 nM after 24 hrs by Annexin V-FITC/propidium iodide-dual staining based FACS analysis (reference value: 2.3%); assay type: functional
MCF7 [13] = test: Induction of DNA double strand breaks in human MCF7 cells assessed as activation of phosphorylated Chk2 at Thr68 residue after 24 hrs immunoblot analysis; assay type: cell-based
[14] = Induction of DNA damage-mediated apoptosis in human MCF7 cells assessed as upregulation of cytochrome c after 24 hrs by immunoblot analysis; assay type: cell-based
MCF7 [15] = test: Induction of DNA damage-mediated apoptosis in human MCF7 cells assessed as cleavage of caspase-3 after 24 hrs by immunoblot analysis; assay type: cell-based
MCF7 [16] = test: Induction of DNA damage-mediated apoptosis in human MCF7 cells assessed as activation of ERK1/2 at 12 nM up to 6 hrs by immunoblot analysis; assay type: cell-based
MCF7 [17] = test: Induction of DNA damage-mediated apoptosis in human MCF7 cells assessed as decrease in HDAC1 levels in nuclear fraction at 8 to 16 nM after 24 hrs by immunoblot analysis; assay type: cell-based
MCF7 [18] = test: Induction of DNA damage-mediated apoptosis in human MCF7 cells assessed as decrease in HDAC2 levels in nuclear fraction at 8 to 16 nM after 24 hrs by immunoblot analysis; assay type: cell-based
MCF7 [19] = test: Induction of DNA damage-mediated apoptosis in human MCF7 cells assessed as decrease in HDAC1 expression in cytoplasmic fraction at 8 to 16 nM after 24 hrs by immunoblot analysis; assay type: cell-based
MCF7 [20] = test: Induction of DNA damage-mediated apoptosis in human MCF7 cells assessed as decrease in HDAC2 expression in cytoplasmic fraction at 8 to 16 nM after 24 hrs by immunoblot analysis; assay type: cell-based
MCF7 [21] = test: Induction of DNA damage-mediated apoptosis in human MCF7 cells assessed as increase in HDAC3 expression in cytoplasmic fraction at 8 to 16 nM after 24 hrs by immunoblot analysis; assay type: cell-based
MCF7 [22] = test: Induction of DNA damage-mediated apoptosis in human MCF7 cells assessed as decrease in HDAC3 expression in nuclear fraction at 8 to 16 nM after 24 hrs by immunoblot analysis; assay type: cell-based
MCF7 [23] = test: Antiproliferative activity against human MCF7 cells assessed as effect on cellular morphology after 24 hrs by phase contrast microscopic method; assay type: functional, cell-based
[24] = Cell cycle arrest in human MCF7 cells assessed as G2/M phase at 12 nM after 24 hrs by propidium iodide staining based FACS analysis (reference value: 28.3%); assay type: functional

**Q.** With `O=c1cc(OCc2ccccc2)c2ccc3ccccc3c2[nH]1` as the compound, how does the pIC50 [1] read?
**A.** The pIC50 was 7.20.

**Q.** What about the pIC50 [2] of the same compound?
**A.** The pIC50 was 4.28.

**Q.** And the IC50 at 24 h [3]?
**A.** Its IC50 at 24 h is > 100 µM.

**Q.** And the IC50 at 24 h [4]?
**A.** The IC50 at 24 h was > 100 µM.

**Q.** And the Activity (Bos taurus [5])?
**A.** Its Activity is “Active”.

**Q.** And the inhibition (Bos taurus [6])?
**A.** The inhibition was “Active”.

**Q.** What about the Activity (MCF7 [7]) of the same compound?
**A.** The Activity was “Dose-dependent effect”.

**Q.** And the fold change (FC) (MCF7 [8])?
**A.** The fold change (FC) was 11.

**Q.** What about the Activity (MCF7 [9]) of the same compound?
**A.** Its Activity is 44.78%.

**Q.** What about the Activity (MCF7 [10]) of the same compound?
**A.** The Activity was 7.2%.

**Q.** And the Activity (MCF7 [11])?
**A.** The Activity was 5.8%.

**Q.** What about the Activity (MCF7 [12]) of the same compound?
**A.** The Activity was 43.5%.

**Q.** What about the Activity (MCF7 [13]) of the same compound?
**A.** The Activity was “Dose-dependent effect”.

**Q.** And the Activity [14]?
**A.** Its Activity is “Dose-dependent effect”.

**Q.** What about the Activity (MCF7 [15]) of the same compound?
**A.** Its Activity is “Dose-dependent effect”.

**Q.** And the Activity (MCF7 [16])?
**A.** Its Activity is “Active”.

**Q.** And the Activity (MCF7 [17])?
**A.** The Activity was “Active”.

**Q.** And the Activity (MCF7 [18])?
**A.** Its Activity is “Active”.

**Q.** And the Activity (MCF7 [19])?
**A.** The Activity was “Active”.

**Q.** What about the Activity (MCF7 [20]) of the same compound?
**A.** The Activity was “Active”.

**Q.** And the Activity (MCF7 [21])?
**A.** Its Activity is “Active”.

**Q.** What about the Activity (MCF7 [22]) of the same compound?
**A.** Its Activity is “Active”.

**Q.** And the Activity (MCF7 [23])?
**A.** The Activity was “Dose-dependent effect”.

**Q.** What about the Activity [24] of the same compound?
**A.** Its Activity is 16.2%.
